Common to all, as to format: cell-based
Experiment [1] relates to IRE1 L577D, V586D, A597D, L644D, L695D, E651A. As to the kind of experiment: NanoBRET with IRE1 point mutants disrupting IRE1:G6374 interactions. As to conditions: each of L577D, HEK293T. As to the method: 8 × 10^5 293T cells per well were seeded in 6-well plates (Costar, #3516) and incubated at 37 °C, 5% CO2 for 6 h. A mixture of 0.2 µg ERN1 (IRE1)-NanoLuc Fusion Vector (Promega, NV1321), 2 µg HaloTag-VHL Fusion Vector (Promega, N2731), 6 µl FuGENE HD Transfection Reagent (Promega, E2311), and 100 µL Opti-MEM I reduced serum medium (Gibco, #31985062) per well was incubated at room temperature for 20 min before adding to cells. For expression of IRE1 mutants, site-directed mutagenesis was performed using the ERN1-NanoLuc Fusion Vector as the DNA template, and the transfection mixture was prepared in the same way as WT IRE1. After 18 h, cells from 6-well plates were trypsinized, resuspended in Opti-MEM I reduced serum medium, and reseeded into 96-well plates (Costar, #3917), with or without the addition of HaloTag NanoBRET 618 Ligand (Promega, G9801). After 18 h of incubation, a titration of G6374 (dilutions made in Opti-MEM I reduced serum medium) was added to the cells. After 2 h of G6374 treatment, NanoBRET Nano-Glo Substrate (Promega, N1571) was added to cells. The 96-well plates were imaged by GloMax Discover Microplate Reader (Promega, GM3000) with the default “BRET: NanoBRET 618” protocol (Donor: 450 BP; Acceptor: 600 LP; Integration: 0.3 s). Data analysis was performed according to the user manual.
For orientation: BRET reads energy transfer from a luciferase to a nearby fluorophore.

A further experiment concerns Colo201 cells. In words: Incucyte cell confluency, Colo201 cells. As to conditions: Colo201 shIRE1 cells, titration. The method, then:
For non-adherent AMO1, KMS27, and OPM2 cells, cells were plated at 5000 cells/well in ultra-low attachment (ULA) 96-well plates (Costar, #7007) and centrifuged at 600 × g for 5 min for spheroid formation. For adherent U2OS and Colo201 cells, 2000 cells/well were seeded in a clear flat-bottom 96-well plate (Costar, #3595). Treatments were added at the time of cell seeding, and cells were cultured in complete RPMI media to a final volume of 200 µL/well. Cultures were maintained at 37 °C throughout the duration of the experiment. Cell confluency was tracked using the Incucyte live-cell imaging system (Sartorius S3). Picture frames were captured every 4 h with a 4× objective, and cell confluency (%) from the total well area as a function of time was calculated using the Incucyte software (version 2023 A Rev2).

The next experiment deals with IRE1 (Homo sapiens, UniProt O75460). As to the kind of experiment: IP-IB of K48-linked ubiquitination of endogenous IRE1 in AMO1 cells. Set-up: Immunoblot (IB) analysis of endogenous IRE1 depletion in AMO1 cells; endogenous in cells; host or cells: AMO1. As to conditions: 3 µM, 2 h, compared to DMSO. The method, then: Cells were lysed in buffer containing 20 mM HEPES 7.2, 150 mM NaCl, and 1% Triton X-100, supplemented with fresh protease and phosphatase inhibitors (Invitrogen, #78440), cleared by centrifugation at 12,000 × g for 10 min, and analyzed by BCA protein assay (Thermo Fisher Scientific, #23227). Equal protein amounts were loaded, separated by SDS-PAGE, electrotransferred to nitrocellulose membranes using the iBLOT2 system (Invitrogen), and blocked in 5% nonfat milk solution for 60 min. Membranes were probed with primary antibodies at 1:1000 dilution in 5% milk at 4 °C overnight. Signal was detected using appropriate horseradish peroxidase (HRP)-conjugated secondary antibodies at 1:10,000 in 5% milk at room temperature for 1–2 h. Bands were visualized by the Azure 600 western blot imaging system (Azure Biosystems). For in vitro ubiquitination assays performed with Me-Ub, bands were visualized by the Odyssey CLx Imager (LI‑COR) after incubating the blots with the IRDye 800CW (LI-COR) secondary antibodies at 1:10,000 in Intercept Blocking Buffer (LI-COR) at room temperature for 1–2 h.
Sequence of IRE1 (O75460 19-977): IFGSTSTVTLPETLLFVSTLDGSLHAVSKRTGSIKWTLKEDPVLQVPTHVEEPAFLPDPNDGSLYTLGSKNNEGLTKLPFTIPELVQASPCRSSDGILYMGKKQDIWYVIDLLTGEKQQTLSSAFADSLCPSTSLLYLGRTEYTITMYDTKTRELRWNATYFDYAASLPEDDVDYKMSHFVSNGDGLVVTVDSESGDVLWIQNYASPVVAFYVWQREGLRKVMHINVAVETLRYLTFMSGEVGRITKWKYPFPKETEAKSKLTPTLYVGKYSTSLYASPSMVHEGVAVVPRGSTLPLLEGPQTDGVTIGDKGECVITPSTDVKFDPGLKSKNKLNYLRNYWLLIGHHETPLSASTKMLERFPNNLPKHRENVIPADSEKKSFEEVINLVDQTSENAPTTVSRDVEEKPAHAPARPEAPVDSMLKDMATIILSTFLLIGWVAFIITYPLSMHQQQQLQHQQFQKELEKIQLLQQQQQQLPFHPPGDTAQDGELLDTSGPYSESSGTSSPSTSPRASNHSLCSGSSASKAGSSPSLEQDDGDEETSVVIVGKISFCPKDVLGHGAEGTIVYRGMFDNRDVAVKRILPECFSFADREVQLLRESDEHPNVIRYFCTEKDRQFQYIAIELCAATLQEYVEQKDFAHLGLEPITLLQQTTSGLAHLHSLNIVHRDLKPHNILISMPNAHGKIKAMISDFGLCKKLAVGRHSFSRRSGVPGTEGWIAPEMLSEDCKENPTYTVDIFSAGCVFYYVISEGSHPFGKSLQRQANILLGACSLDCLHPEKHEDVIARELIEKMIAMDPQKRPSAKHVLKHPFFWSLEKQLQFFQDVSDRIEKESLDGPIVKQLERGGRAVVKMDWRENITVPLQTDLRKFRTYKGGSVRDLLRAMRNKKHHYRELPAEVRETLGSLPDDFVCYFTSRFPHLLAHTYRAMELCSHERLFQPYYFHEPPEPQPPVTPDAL
IRE1.LD antibodies were conjugated to agarose beads using the AminoLink® Plus Immobilization Kit (Thermo Fisher, #44894). […]

As to `Cc1ncsc1-c1ccc(CNC(=O)[C@@H]2C[C@@H](O)CN2C(=O)[C@@H](NC(=O)CCCCN2CCN([C@H]3CC[C@H](Nc4ncc5ccc(=O)n(C(C)C)c5n4)CC3)CC2)C(C)(C)C)cc1` [G6374], the “G6374-induced IRE1:VHL interaction and IRE1 degradation with IRE1 point mutants” value in experiment [1] was “abolish the G6374-induced interaction between IRE1 and VHL”. For the same compound, in the experiment with Colo201 cells, the “proliferation rate (cell confluency)” value is given as “did not affect the proliferation rate”. At IRE1, the “K48-linked ubiquitination of endogenous IRE1” value is listed as “significant increase in K48-linked ubiquitination of endogenous IRE1”.

The record behind these values is article PMC12749748, “Chemically-induced degradation of the endoplasmic-reticulum stress sensor IRE1 by a VHL-recruiting chimera” (Nature Communications, 2025).
